Assay results reported in publication PMC10611510, “Teicoplanin associated gene tcaA inactivation increases persister cell formation in Staphylococcus aureus” (Frontiers in Microbiology, 2023).
Values after ≈ are worked out from the molar mass of the structure shown. “Also recorded” adds a separate entry of the source. Like-named read-outs stand apart in the source and are kept apart here.

Columns and labels:
ΔtcaA [1] = assay: MIC, two-fold broth microdilution (CLSI); assay type: cell-based; conditions: Staphylococcus aureus
ΔtcaA [2] = assay: Antibiotic susceptibility testing (inhibition zones); assay type: cell-based, Staphylococcus aureus; conditions: 100 fold MIC, 2 × 10^9 CFU/mL, 37°C, inhibition zones after 24–36 h; Supplementary Figure S1
S. aureus WT [3] = assay: microbe, parasite or virus in culture; assay type: cell-based, Staphylococcus aureus
S. aureus WT [4] = assay: Growth curve analysis; assay type: cell-based, Staphylococcus aureus; conditions: OD600, 37°C
Method: (§1) The overnight culture was 100 times diluted in TSB medium and a 200 μL was inoculated into a 96-well microtiter plate. The plates were incubated at 37°C with shaking at 200 rpm. At different time intervals (1–18 and 24 h), OD600 was measured using a microplate reader (Thermo Fisher, Waltham, MA, USA).

MRSA MW2 = assay: Growth curve analysis; assay type: cell-based, Staphylococcus aureus; conditions: OD600, 37°C
Method: as §1

ΔtcaA [5] = assay: Growth curve analysis; assay type: cell-based, Staphylococcus aureus; conditions: OD600, 37°C
Method: as §1

C-ΔtcaA = assay: Growth curve analysis; assay type: cell-based, Staphylococcus aureus; conditions: OD600, 37°C
Method: as §1

[6] = system: penicillin binding protein-2 (pbp2) ectopic expression; conditions: ref Sieradzki et al., 1998, cited from earlier work; for MIC after the increase: end value of the increase associated with pbp2 ectopic expression; for MIC before the increase: start value of the increase associated with pbp2 ectopic expression
Description: Staphylococcus aureus has two major types of resistant strains, namely, methicillin-resistant S. aureus (MRSA) and vancomycin-resistant S. aureus (VRSA). MRSA is considered the major cause of hospital and community-acquired infections ([Aqib and Rodriguez-Morales, 2021]) and is largely treated with glycopeptides. However, the emergence of teicoplanin resistance, vancomycin-intermediate S. aureus (VISA), and VRSA has made the clinical treatment unsuccessful and increased death rates across the world ([Howden et al., 2010]). S. aureus resistant to glycopeptides are a serious threat to public hea ...

dCas9-tcaB = assay: Persister assay; conditions: dCas9-tcaB vs WT-dCas9 and WT; 10-fold MIC
Method: (§2) A persistence assay was adopted from our previous protocol ([Habib et al., 2020]). The cells were grown to OD600 = 0.40 in the TSB medium. The pSD1 containing dCas9-tcaA and dCas9-tcaB were induced with ATC 100 ng/mL for 1 h, the medium was removed, and fresh TSB and antibiotic were added whereas ΔtcaA cells were challenged with antibiotic at OD600 = 0.40. After 12 h, a 200 μL sample was taken and CFU counting was performed. Each antibiotic concentration was 10 fold of MIC, and S. aureus WT and S. aureus WT-dCas9 were used as controls.

dCas9-tcaA = assay: Persister assay; conditions: dCas9-tcaA vs WT-dCas9, 10-fold MIC, CFU counting; for Surviving fraction of cells (persisters), fold relative to control: after 12 h, triplicates; for Increase in persister cells, fold relative to control: after 48 h
Method: as §2

resistant isolates = conditions: ref Wang Y. et al., 2017; cited from earlier work
Description: Glycopeptide resistance in MRSA is a global problem and vancomycin- and teicoplanin-resistant strains are of major clinical relevance. Several studies have reported the emergence of teicoplanin and vancomycin resistance in S. aureus ([Wang Y. et al., 2017]; [Szymanek-Majchrzak et al., 2018]; [Wu et al., 2021]). Typically, teicoplanin and vancomycin bind to D-alanine-D-alanine subunits of the murein monomer and cross resistance could develop between teicoplanin and vancomycin ([Bakthavatchalam et al., 2019]). The cell wall thickness also contributed to the development of vancomycin and teicopla ...

ΔtcaA [7] = system: ΔtcaA
Method: as §2

ΔtcaA [8] = assay: Fluorescence microscopy of persister cell resuscitation (GFP); conditions: 20-fold MIC for 48 h, washed, fresh TSB 2 h at 37°C; ΔtcaA compared to WT
Method: Fluorescence microscopy was used to observe the persister cell resuscitation ability of the whole population. […] The cells were harvested, washed with ddH2O, and resuspended in TSB media. The cells were grown for 2 h at 37°C and the S. aureus WT and ΔtcaA were observed under the fluorescence microscope.

ΔtcaA [9] = assay: Persister assay
Method: as §2

[10] = C-ΔtcaA complementary strain, 1 mg/L
[11] = ΔtcaA complementary strain, 2 mg/L

Compound | MIC (ΔtcaA [1]) [µg/mL] | Susceptibility of ΔtcaA (in words) (ΔtcaA [2]) | Susceptibility of the isolate (in words) (S. aureus WT [3]) | MIC (S. aureus WT [3]; Staphylococcus aureus) [µg/mL] | Growth in TSB with antibiotic (in words) (S. aureus WT [4]; 1 mg/L) | Growth in TSB with antibiotic (in words) (S. aureus WT [4]; 2 mg/L) | Growth in TSB with antibiotic (in words) (MRSA MW2; 1 mg/L) | Growth in TSB with antibiotic (in words) (MRSA MW2; 2 mg/L) | Growth in TSB with antibiotic (in words) (ΔtcaA [5]; 1 mg/L) | Growth in TSB with antibiotic (in words) (ΔtcaA [5]; 2 mg/L) | Growth in TSB with antibiotic (in words) (C-ΔtcaA; [10]) | Growth in TSB with antibiotic (in words) (C-ΔtcaA; [11]) | MIC after the increase [6] [µg/mL] | MIC before the increase [6] [µg/mL] | Persister cell formation relative to controls (in words) (dCas9-tcaB) | Surviving fraction of cells (persisters), fold relative to control (dCas9-tcaA) [fold] | Increase in persister cells, fold relative to control (dCas9-tcaA) [fold] | MIC (resistant isolates) [µg/mL] | GFP-expressing cells after antibiotic removal (resuscitation) (ΔtcaA [8]) | further results
CC[C@H]1OC(=O)[C@H](C)[C@@H](O[C@H]2C[C@@](C)(OC)[C@@H](O)[C@H](C)O2)[C@H](C)[C@@H](O[C@@H]2O[C@H](C)C[C@H](N(C)C)[C@H]2O)[C@](C)(O)C[C@@H](C)CN(C)[C@H](C)[C@@H](O)[C@]1(C)O [Azithromycin] | ≤ 8 | did not affect | sensitive | ≤ 8 | – | – | – | – | – | – | – | – | – | – | – | – | – | – | – | –
COc1cccc(OC)c1C(=O)N[C@@H]1C(=O)N2[C@@H]1SC(C)(C)[C@@H]2C(=O)O [Methicillin] | ≥ 256 | – | resistant | > 512 | – | – | – | – | – | – | – | – | – | – | – | – | – | – | – | –
CN[C@H](CC(C)C)C(=O)N[C@H]1C(=O)N[C@@H](CC(N)=O)C(=O)N[C@H]2C(=O)N[C@H]3C(=O)N[C@H](C(=O)N[C@H](C(=O)O)c4cc(O)cc(O)c4-c4cc3ccc4O)[C@H](O)c3ccc(c(Cl)c3)Oc3cc2cc(c3O[C@@H]2O[C@H](CO)[C@@H](O)[C@H](O)[C@H]2O[C@H]2C[C@](C)(N)[C@H](O)[C@H](C)O2)Oc2ccc(cc2Cl)[C@H]1O [Vancomycin] | – | resistance; also recorded: susceptibility was decreased | resistant | 10 (≈ 6.9 µM) | fast and steady growth | slow growth | slow growth rates | did not show any growth | fast and steady growth | slow growth | fast and steady growth | slow growth | 2 (≈ 1.38 µM) | 1 (≈ 0.69 µM) | did not induce persister cell formation | 15 | 10 | 2 (≈ 1.38 µM) | high number of cells expressing GFP in ΔtcaA cells compared to WT | Increase in persister cells, fold (tcaA persistence assay, summary) (ΔtcaA [7]): 10–11 fold; Increase in persister cells, fold relative to control (ΔtcaA [7]): 11 fold
Teicoplanin | – | resistance; also recorded: susceptibility was decreased | resistant | – | fast and steady growth | slow growth | slow growth rates | did not show any growth | fast and steady growth | slow growth | fast and steady growth | slow growth | 8 | 2 | did not induce persister cell formation | 17 | 13 | 16 | high number of cells expressing GFP in ΔtcaA cells compared to WT | Increase in persister cells, fold (tcaA persistence assay, summary) (ΔtcaA [9]; summary over dCas9-tcaA and ΔtcaA, discussion): 13–14 fold; Surviving fraction of cells (persisters), fold relative to control (ΔtcaA [9]; ΔtcaA vs WT, 10-fold MIC, after 12 h, CFU counting, triplicates): 18 fold; Increase in persister cells, fold relative to control (ΔtcaA [9]; ΔtcaA vs WT, 10-fold MIC, after 48 h, CFU counting): 14 fold; MIC (S. aureus WT [3]): 16 µg/mL
